Experimental data as given in patent US8206732B2, “Pyrithione biocides enhanced by silver, copper, or zinc ions” (Arch Chemicals, Inc., priority 1999, dated 2012).
“And” between values parts separate entries of the source, which are not always exact repeats. Equal entries are not always repeated.

What was measured:
[1] = system: Aspergillus niger ATCC 6275; assay: Checkerboard MIC test, pyrithiones with zinc salts; format: cell-based; conditions: Zn(II) from ZnO, alone or in the inhibitory mixture; TSB, 28 C, 5 days
Ps. aeruginosa ATCC 9027 = assay: Checkerboard MIC test, pyrithiones with zinc salts; format: cell-based, Pseudomonas aeruginosa; conditions: Zn(II) from ZnO, alone or in the inhibitory mixture; TSB, 28 C, 3 days
[2] = system: Staphylococcus aureus 27217; assay: Checkerboard MIC test, pyrithiones with silver salts; format: cell-based; conditions: silver ion alone or in the inhibitory mixture; TSB pH 7.3, 35° C., 1 to 2 days
[3] = system: Staphylococcus aureus ATCC 27217; assay: Checkerboard MIC test, pyrithiones with zinc salts; format: cell-based; conditions: TSB, 28 C, 3 days
[4] = system: Staphylococcus aureus ATCC 27217; assay: Zone of inhibition test (paper disc on TSA); format: cell-based; conditions: 6.5 mm discs; 0.135% pyrithione, 0.1% ZnCl2 or both; 28° C., 24 hr
[5] = system: Pseudomonas aeruginosa NCIMB 6749; assay: Checkerboard MIC test, pyrithiones with zinc salts; format: cell-based; conditions: TSB, 28 C, 3 days
[6] = system: Pseudomonas aeruginosa NCIMB 6749; assay: Zone of inhibition test (paper disc on TSA); format: cell-based; conditions: 6.5 mm discs; 0.135% pyrithione, 0.1% ZnCl2 or both; 28° C., 24 hr
[7] = system: Escherichia coli ATCC 10536; assay: Zone of inhibition test (paper disc on TSA); format: cell-based; conditions: 6.5 mm discs; 0.135% pyrithione, 0.1% ZnCl2 or both; 28° C., 24 hr
Fusarium sp. = assay: Checkerboard MIC test, pyrithiones with zinc salts; format: cell-based; conditions: TSB, 28 C, 5 days
Experimental: Mixtures of pyrithione and zinc or silver in various proportions were tested for relative efficacy by a modification of the procedure described by Dougherty, et al.
Equal volumes of bacteria (10^6 cells/ml) or fungi (10^5 spores/ml) were added to each microtiter plate well. The plates were incubated at 28 C for 3 days (bacteria) or 5 days (fungi), and the minimum inhibitory concentration (MIC) of biocide was determined. The Fractional Inhibitory Concentration (FIC=concentration of biocide in an inhibitory mixture divided by the MIC of the pure biocide) was determined, and the FIC Index (sum of the two FIC's) was calculated. The type of interaction was categorized according to the magnitude of the Index: Synergistic (<1), Additive (1), or Antagonistic (>1).

[8] = system: Fusarium sp. free-living cells; assay: Viable free-living cells in bulk metalworking fluid (Example 5); format: cell-based; conditions: 100 PPM NaPT, 10 PPM Zn (II) or both, 4 days after treatment
Experimental: (§1) Experiments were conducted to investigate the efficacy of the composition of the present invention to inhibit the survival, growth, and proliferation of free-living and biofilm populations of bacteria and fungi in metalworking fluids. […] Metalworking fluids (MWF) employed included 5% soluble oil MWF, 5% semi-synthetic MWF, or 5% synthetic MWS. For testing against bacteria, metalworking fluids were supplemented with 2% (weight-to-weight ratio (w:w)) of 5 g/L yeast extract (Difco), Metalworking fluids were supplemented with 2% (weight-to-weight (w:w)) of Tryptic Soy Broth (Difco) for fungal tests.
(§2) For each experiment, three ml of a 5% metalworking fluid was added to each of twelve, sterile, 16 mm×150 mm glass culture tubes. […] Fusarium sp. was added to the tubes to final concentrations of 10^5 spores/ml for the fungal tests. Tubes incubated for 3 days at 28° C. and 180 rpms.
(§3) After the treatments additions were performed, the culture tubes resumed incubation at 28° C., 180 rpms for an additional 4 days.
(§4) After 4 days, culture tubes were removed from the incubator and viable counts of organisms from the bulk MWF fluid and the biofilm were determined using serial dilution and drop plating techniques. For biofilms, polycarbonate discs were removed from tubes, dip-rinsed in three successive washes of de-ionized water to remove loosely attached cells, and transferred to 25 mm×150 mm culture tubes containing 10 ml of sterile, de-ionized water. Biofilms were removed from discs and resuspended by vortexing tubes for 30 seconds. Bacteria were plated on to R2A Agar plates and incubated at 37° C. Fungi were plated onto Malt Agar plates and incubated at 28° C. Mean colony forming units per ml (for bulk) and per square cm (cm^2) biofilm were determined for each experimental treatment.

[9] = system: E. coli 8739 free-living cells; assay: as above; format: cell-based, Escherichia coli; conditions: 10% TSB; 100 PPM NaPT, 10 PPM Zn (II) or both; 4 days after treatment
E. coli 8739 biofilm = assay: Viable biofilm cells on discs in metalworking fluid (Example 5); format: cell-based, Escherichia coli; conditions: 10% TSB, polycarbonate disc; 100 PPM NaPT, 10 PPM Zn (II) or both; 4 days after treatment
[10] = system: Fusarium sp. and Cephalosporium sp.; assay: Various mixtures of NaPT and Zn(II) against fungi in 5% metalworking fluid (Example 8, Table 10b); format: cell-based
[11] = system: mixed bacteria (Pseudomonas aeruginosa 9027, Escherichia coli 8739, Pseudomonas fluorescens 12201, Pseudomonas rubescens 12202, Pseudomonas putida); assay: Various mixtures of NaPT and Zn(II) against bacteria in 5% metalworking fluid (Example 8, Table 10a); format: cell-based, Pseudomonas spp.
Fusarium sp. biofilm = assay: Viable biofilm cells on discs in metalworking fluid (Example 5); format: cell-based; conditions: polycarbonate disc, 100 PPM NaPT, 10 PPM Zn (II) or both, 4 days after treatment
Experimental: as §1, §2, §3, §4

[12] = system: Pseudomonas aeruginosa ATCC 9027; assay: MIC in Tryptic Soy Broth, microtiter (Example 1); format: cell-based; conditions: TSB, 28° C., incubated 5-6 days; single agent (NaPT without Cu)
[13] = system: seven cultures of bacteria; assay: Challenge test in soluble oil metalworking fluid, bacteria (Example 6); format: cell-based; conditions: soluble oil MWF, 10 ppm Zn, 100 ppm NaPT, 50 ppm ZPT or 50 ppm CuPT as in column head
[14] = system: Aspergillus niger ATCC 6275; assay: MIC in Tryptic Soy Broth, microtiter (Example 1); format: cell-based
two cultures of fungi = assay: Challenge test in soluble oil metalworking fluid, fungi (Example 6); format: cell-based; conditions: soluble oil MWF, 10 ppm Zn, 100 ppm NaPT, 50 ppm ZPT or 50 ppm CuPT as in column head
[15] = pyrithione alone or pyrithione concentration in the inhibitory mixture
[16] = Zn(II) alone or Zn(II) concentration in the inhibitory mixture
[17] = semi-synthetic, Zn (II) 10 PPM, Day 1
[18] = semi-synthetic, Zn (II) 10 PPM, Day 2
[19] = semi-synthetic, Zn (II) 10 PPM, Day 7
[20] = semi-synthetic, Zn (II) 20 PPM, Day 1
[21] = semi-synthetic, Zn (II) 20 PPM, Day 2
[22] = semi-synthetic, Zn (II) 20 PPM, Day 7
[23] = semi-synthetic, Zn (II) 30 PPM, Day 1
[24] = semi-synthetic, Zn (II) 30 PPM, Day 2
[25] = semi-synthetic, Zn (II) 30 PPM, Day 7
[26] = semi-synthetic, Zn (II) 100 PPM, Day 1
[27] = semi-synthetic, Zn (II) 100 PPM, Day 4
[28] = semi-synthetic, Zn (II) 500 PPM, Day 1
[29] = semi-synthetic, Zn (II) 500 PPM, Day 4
[30] = synthetic, Zn (II) 10 PPM, Day 1
[31] = synthetic, Zn (II) 20 PPM, Day 1

SMILES: [O]=[Zn] [ZnO]
- MIC Zn(II) [1]: >1645 ppm
- MIC Zn(II) (Ps. aeruginosa ATCC 9027): >1645 ppm

SMILES: [Ag+].[Ag+].[O-2] [Ag2O]
- MIC Ag^+1 Ion [2]: 29.8 ppm

SMILES: O.O.O.O=S(=O)([O-])[O-].[Mg+2].[O-][n+]1ccccc1SSc1cccc[n+]1[O-] [MDS, MgSO4.3H2O adduct of 2,2′-dithiopyridine-1,1′-dioxide]
- MIC Pyrithione [3, 15]: 8 ppm
- Zone of Inhibition [4]: 28 mm
- MIC Pyrithione [5, 15]: 1024 ppm
- Zone of Inhibition [6]: 0 mm
- Zone of Inhibition [7]: 31 mm
- MIC Pyrithione (Fusarium sp.; [15]): >1843 ppm

SMILES: O=S(=O)([O-])[O-].[Zn+2] [ZnSO4]
- MIC Zn(II) [3, 16]: 200 ppm
- viable free-living microorganisms ([8]; 5% semisynth. MWF): 4.6 × 10^5 cells/ml
- viable free-living microorganisms ([8]; 5% synthetic MWF): 8.7 × 10^6 cells/ml
- viable free-living microorganisms ([8]; 100% TSB): 3.4 × 10^6 cells/ml
- MIC Zn(II) [5, 16]: >200 ppm and <200 ppm
- MIC Zn(II) (Fusarium sp.; [16]): >200 ppm and <200 ppm
- viable free-living microorganisms [9]: 5.8 × 10^8 cells/ml
- viable biofilm microorganisms (E. coli 8739 biofilm): 6.5 × 10^5 cells/cm^2
- Fungi/ml [10, 17]: 1.0 × 10^4 Fungi/ml
- Fungi/ml [10, 18]: 5.0 × 10^3 Fungi/ml
- Fungi/ml [10, 19]: 4.8 × 10^2 Fungi/ml
- Fungi/ml [10, 20]: 1.2 × 10^4 Fungi/ml
- Fungi/ml [10, 21]: 1.6 × 10^4 Fungi/ml
- Fungi/ml [10, 22]: 4.0 × 10^3 Fungi/ml
- Fungi/ml [10, 23]: 1.2 × 10^4 Fungi/ml
- Fungi/ml [10, 24]: 1.5 × 10^4 Fungi/ml
- Fungi/ml [10, 25]: 1.3 × 10^3 Fungi/ml
- Fungi/ml [10, 26]: 3.3 × 10^4 Fungi/ml
- Fungi/ml [10, 27]: 1.1 × 10^4 Fungi/ml
- Fungi/ml [10, 28]: 4.4 × 10^4 Fungi/ml
- Fungi/ml [10, 29]: 2.0 × 10^4 Fungi/ml
- Fungi/ml ([10]; semi-synthetic, Zn (II) 1000 PPM, Day 1): 4.1 × 10^4 Fungi/ml
- Fungi/ml ([10]; semi-synthetic, Zn (II) 1000 PPM, Day 4): 1.0 × 10^4 Fungi/ml
- Fungi/ml [10, 30]: 7.5 × 10^4 Fungi/ml
- Fungi/ml ([10]; synthetic, Zn (II) 10 PPM, Day 2): 3.1 × 10^4 Fungi/ml
- Fungi/ml ([10]; synthetic, Zn (II) 10 PPM, Day 7): 1.4 × 10^4 Fungi/ml
- Fungi/ml [10, 31]: 3.9 × 10^4 Fungi/ml
- Fungi/ml ([10]; synthetic, Zn (II) 20 PPM, Day 2): 2.2 × 10^4 Fungi/ml
- Fungi/ml ([10]; synthetic, Zn (II) 20 PPM, Day 7): 1.3 × 10^4 Fungi/ml
- Fungi/ml ([10]; synthetic, Zn (II) 30 PPM, Day 1): 4.2 × 10^4 Fungi/ml
- Fungi/ml ([10]; synthetic, Zn (II) 30 PPM, Day 2): 2.1 × 10^4 Fungi/ml
- Fungi/ml ([10]; synthetic, Zn (II) 30 PPM, Day 7): 5.0 × 10^3 Fungi/ml
- Fungi/ml ([10]; synthetic, Zn (II) 100 PPM, Day 1): 2.1 × 10^4 Fungi/ml
- Fungi/ml ([10]; synthetic, Zn (II) 100 PPM, Day 4): 6.0 × 10^3 Fungi/ml
- Fungi/ml ([10]; synthetic, Zn (II) 500 PPM, Day 1): 9.0 × 10^3 Fungi/ml
- Fungi/ml ([10]; synthetic, Zn (II) 500 PPM, Day 4): 5.0 × 10^3 Fungi/ml
- Fungi/ml ([10]; synthetic, Zn (II) 1000 PPM, Day 1): 4.0 × 10^3 Fungi/ml
- Fungi/ml ([10]; synthetic, Zn (II) 1000 PPM, Day 4): 2.0 × 10^3 Fungi/ml
- Fungi/ml ([10]; synthetic, Zn (II) 5000 PPM, Day 1): 2.0 × 10^3 Fungi/ml
- Fungi/ml ([10]; synthetic, Zn (II) 5000 PPM, Day 4): 4.0 × 10^3 Fungi/ml
- Bacteria/ml [11, 17]: 170 Bacteria/ml
- Bacteria/ml [11, 18]: 3.2 × 10^5 Bacteria/ml
- Bacteria/ml [11, 19]: 4.8 × 10^4 Bacteria/ml
- Bacteria/ml [11, 20]: 1.5 × 10^5 Bacteria/ml
- Bacteria/ml [11, 21]: 1.4 × 10^4 Bacteria/ml
- Bacteria/ml [11, 22]: 4.0 × 10^3 Bacteria/ml
- Bacteria/ml [11, 23]: 1.7 × 10^3 Bacteria/ml
- Bacteria/ml [11, 24]: 1.5 × 10^5 Bacteria/ml
- Bacteria/ml [11, 25]: 1.3 × 10^5 Bacteria/ml
- Bacteria/ml [11, 26]: 4.9 × 10^4 Bacteria/ml
- Bacteria/ml [11, 27]: 5.7 × 10^4 Bacteria/ml
- Bacteria/ml [11, 28]: 9.5 × 10^4 Bacteria/ml
- Bacteria/ml [11, 29]: 1.1 × 10^5 Bacteria/ml
- Bacteria/ml [11, 30]: 30 Bacteria/ml
- Bacteria/ml [11, 31]: 190 Bacteria/ml
- viable biofilm microorganisms (Fusarium sp. biofilm; 5% semisynth. MWF): 27 cells/cm^2
- viable biofilm microorganisms (Fusarium sp. biofilm; 5% synthetic MWF): 1.4 × 10^5 cells/cm^2
- viable biofilm microorganisms (Fusarium sp. biofilm; 100% TSB): 3.3 × 10^4 cells/cm^2

SMILES: [Cl-].[Cl-].[Zn+2] [ZnCl2]
- Zone of Inhibition [4]: 0 mm
- Zone of Inhibition [6]: 0 mm
- Zone of Inhibition [7]: 0 mm

SMILES: On1ccccc1=S.On1ccccc1=S.[Cu] [CuPT2, copper pyrithione]
- MIC [12]: >1024 ppm
- BACTERIA (cfu/ml) ([13]; DAY 0): 3.2 × 10^7 cfu/ml
- BACTERIA (cfu/ml) ([13]; DAY 6): 1.5 × 10^7 cfu/ml
- BACTERIA (cfu/ml) ([13]; DAY 13): 9.7 × 10^6 cfu/ml
- BACTERIA (cfu/ml) ([13]; DAY 20): 1.9 × 10^6 cfu/ml
- molar MIC ([14]; Aspergillus niger): 51 µM
- MIC ([14]; TSB, 28° C., incubated 7-8 days, single agent (NaPT without Cu)): 16 ppm
- FUNGI (cfu/ml) (two cultures of fungi; DAY 0): 2.4 × 10^5 cfu/ml
- FUNGI (cfu/ml) (two cultures of fungi; DAY 6): 1000 cfu/ml
- FUNGI (cfu/ml) (two cultures of fungi; DAY 13): 680 cfu/ml
- FUNGI (cfu/ml) (two cultures of fungi; DAY 20): 370 cfu/ml
